# Results from patent US12435060B2, “Acylamino bridged heterocyclic compound, and composition and application thereof” (BEIJING SCITECH-MQ PHARMACEUTICALS LIMITED, priority 2019, dated 2025).
# Test system: HT29 cells
# Assay: Inhibition of cell necrosis (CCK8 method), induced programmed necrosis of HT29 cells
# Assay type: cell-based
# Details: Homo sapiens, HT-29; rescue from necrosis induced by TNF-α 20 ng/mL, AT-406 1 μM, Z-VAD-FMK 20 μM; 16-20 hours; CCK-8, OD 450 nm
# Summary of the method: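 Rescue from programmed necrosis was scored by CCK-8 absorbance at 450 nm after 16-20 h of TNF-α (20 ng/mL), AT-406 (1 μM) and Z-VAD-FMK (20 μM) at 37 °C, 5% CO2. HT29 cells had received compound 30 min earlier across nine 4-fold dilutions (top 25000 nM final). IC50 came from % inhibition relative to uninduced and induced-only wells.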
row,SMILES,IC50 [nM]
1,"Cc1ccc(S(C)(=O)=O)cc1-c1ccnc(NC(=O)c2nnc(Cc3ccccc3)[nH]2)c1 [Example 37, 5-benzyl-N-(4-(2-methyl-5-(methylsulfonyl)phenyl)pyridin-2-yl)-4H-1,2,4-triazole-3-carboxamide]",100 to 1000
2,"CC(C)(O)CCCOc1ccc(Cl)c(-c2cc(NC(=O)c3nnc(Cc4ccccc4F)[nH]3)ncc2Cl)c1 [Example 411, N-(5-chloro-4-(2-chloro-5-((4-hydroxy-4-methylpentyl)oxy)phenyl)pyridin-2-yl)-5-(2-fluorobenzyl)-4H-1,2,4-triazole-3-carboxamide]",100 to 1000
3,"Cn1nccc1-c1ccnc(NC(=O)c2nnc(Cc3ccccc3)[nH]2)c1 [Example 26, 5-benzyl-N-(4-(1-methyl-1H-pyrazol-5-yl)pyridin-2-yl)-4H-1,2,4-triazole-3-carboxamide]",100 to 1000
4,"COc1ccc(C(F)(F)F)cc1-c1ccnc(NC(=O)c2nnc(Cc3ccccc3)[nH]2)c1 [Example 19, 5-benzyl-N-(4-(2-methoxy-5-(trifluoromethyl)phenyl)pyridin-2-yl)-4H-1,2,4-triazole-3-carboxamide]",1000 to 10000
5,"Cc1ccc(C(F)(F)F)cc1-c1ccnc(NC(=O)c2nnc(Cc3ccccc3)[nH]2)c1 [Example 36, 5-benzyl-N-(4-(2-methyl-5-(trifluoromethyl)phenyl)pyridin-2-yl)-4H-1,2,4-triazole-3-carboxamide]",100 to 1000
6,"COc1ccc(OC(C)C)cc1-c1ccnc(NC(=O)c2nnc(Cc3ccccc3)[nH]2)c1 [Example 112, 5-benzyl-N-(4-(5-isopropoxy-2-methoxyphenyl)pyridin-2-yl)-4H-1,2,4-triazole-3-carboxamide]",1000 to 10000
7,"CC(C)(O)CCCOc1ccc(C(F)(F)F)c(-c2cc(NC(=O)c3nnc(Cc4ccccc4)[nH]3)ncn2)c1 [Example 450, 5-benzyl-N-(6-(5-((4-hydroxy-4-methylpentyl)oxy)-2-(trifluoromethyl)phenyl)pyrimidin-4-yl)-4H-1,2,4-triazole-3-carboxamide]",≤ 100
8,"CCOc1ccc(C)c(-c2cncc(NC(=O)c3nnc(Cc4ccccc4)[nH]3)c2)c1 [Example 197, 5-benzyl-N-(5-(5-ethoxy-2-methylphenyl)pyridin-3-yl)-4H-1,2,4-triazole-3-carboxamide]",> 10000
9,"Cc1ccc(OCCCC(C)(C)O)cc1-c1ccnc(NC(=O)c2nnc(Cc3cc(F)cc(F)c3)[nH]2)c1 [Example 200, 5-(3,5-difluorobenzyl)-N-(4-(5-((4-hydroxy-4-methylpentyl)oxy)-2-methylphenyl)pyridin-2-yl)-4H-1,2,4-triazole-3-carboxamide]",≤ 100
10,"Cc1cnc(NC(=O)c2nnc(Cc3ccccc3F)[nH]2)cc1-c1cc(OCCCC(C)(C)O)ccc1Cl [Example 413, N-(4-(2-chloro-5-((4-hydroxy-4-methylpentyl)oxy)phenyl)-5-methylpyridin-2-yl)-5-(2-fluorobenzyl)-4H-1,2,4-triazole-3-carboxamide]",100 to 1000
11,"Cc1ccc(OCCCC(C)(C)O)cc1-c1ccnc(NC(=O)c2nnc(Cc3cccc(Cl)c3F)[nH]2)c1 [Example 491, 5-(3-chloro-2-fluorobenzyl)-N-(4-(5-((4-hydroxy-4-methylpentyl)oxy)-2-methylphenyl)pyridin-2-yl)-4H-1,2,4-triazole-3-carboxamide]",100 to 1000
12,"COCCOc1ccc(C(F)(F)F)c(-c2ccnc(NC(=O)c3nnc(Cc4ccccc4)[nH]3)c2)c1 [Example 279, 5-benzyl-N-(4-(5-(2-methoxyethoxy)-2-(trifluoromethyl)phenyl)pyridin-2-yl)-4H-1,2,4-triazole-3-carboxamide]",≤ 100
13,"Cc1ccc(OCCCC(C)(C)O)cc1-c1cc(NC(=O)c2nnc(Cc3cccc(Cl)c3F)[nH]2)ncn1 [Example 438, 5-(3-chloro-2-fluorobenzyl)-N-(6-(5-((4-hydroxy-4-methylpentyl)oxy)-2-methylphenyl)pyrimidin-4-yl)-4H-1,2,4-triazole-3-carboxamide]",100 to 1000
14,"Cc1cnc(NC(=O)c2nnc(Cc3ccccc3F)[nH]2)cc1-c1cc(OCC2CCOCC2)ccc1Cl [Example 426, N-(4-(2-chloro-5-((tetrahydro-2H-pyran-4-yl)methoxy)phenyl)-5-methylpyridin-2-yl)-5-(2-fluorobenzyl)-4H-1,2,4-triazole-3-carboxamide]",100 to 1000
15,"CC(C)(O)CCCOc1ccc(F)c(-c2cc(NC(=O)c3nnc(CC4CCCCC4)[nH]3)ncc2F)c1 [Example 319, 5-(cyclohexylmethyl)-N-(5-fluoro-4-(2-fluoro-5-((4-hydroxy-4-methylpentyl)oxy)phenyl)pyridin-2-yl)-4H-1,2,4-triazole-3-carboxamide]",≤ 100
16,"CCc1ccc(F)c(Cc2nnc(C(=O)Nc3cc(-c4cc(OCCCC(C)(C)O)ccc4Cl)ccn3)[nH]2)c1 [Example 350, N-(4-(2-chloro-5-((4-hydroxy-4-methylpentyl)oxy)phenyl)pyridin-2-yl)-5-(5-ethyl-2-fluorobenzyl)-4H-1,2,4-triazole-3-carboxamide]",100 to 1000

row,SMILES,IC50 [nM]
1,"Cc1ccc(NC(=O)CCC(C)(C)O)cc1-c1ccnc(NC(=O)c2nnc(CC3CCCC3)[nH]2)c1 [Example 490, 5-(cyclopentylmethyl)-N-(4-(5-(4-hydroxy-4-methylvaleramido)-2-methylphenyl)pyridin-2-yl)-4H-1,2,4-triazole-3-carboxamide]",≤ 100
2,"Cc1ccc(OCC2CCOCC2)cc1-c1cc(NC(=O)c2nnc(Cc3ccccc3)[nH]2)ncn1 [Example 441, 5-benzyl-N-(6-(2-methyl-5-((tetrahydro-2H-pyran-4-yl)methoxy)phenyl)pyrimidin-4-yl)-4H-1,2,4-triazole-3-carboxamide]",≤ 100
3,"Cc1ccc(OCCCC(C)(C)O)cc1-c1cc(NC(=O)c2nnc(Cc3ccccc3F)[nH]2)ncc1C [Example 240, 5-(2-fluorobenzyl)-N-(4-(5-((4-hydroxy-4-methylpentyl)oxy)-2-methylphenyl)-5-methylpyridin-2-yl)-4H-1,2,4-triazole-3-carboxamide]",100 to 1000
4,"CC(C)(O)CCCOc1ccc(Cl)c(-c2ccnc(NC(=O)c3nnc(CC4CCCC4)[nH]3)c2)c1 [Example 356, N-(4-(2-chloro-5-((4-hydroxy-4-methylpentyl)oxy)phenyl)pyridin-2-yl)-5-(cyclopentylmethyl)-4H-1,2,4-triazole-3-carboxamide]",≤ 100
5,"CC(C)(C)OCCOc1ccc(C(F)(F)F)c(-c2ccnc(NC(=O)c3nnc(Cc4ccccc4F)[nH]3)c2)c1 [Example 292, 5-(2-fluorobenzyl)-N-(4-(5-(2-(tert-butoxy)ethoxy)-2-(trifluoromethyl)phenyl)pyridin-2-yl)-4H-1,2,4-triazole-3-carboxamide]",≤ 100
6,"O=C(Nc1cc(-c2cc(OCCC3CCOCC3)ccc2C(F)(F)F)ncn1)c1nnc(CC2CCCCC2)[nH]1 [Example 461, 5-(cyclohexylmethyl)-N-(6-(5-(2-(tetrahydro-2H-pyran-4-yl)ethoxy)-2-(trifluoromethyl)phenyl)pyrimidin-4-yl)-4H-1,2,4-triazole-3-carboxamide]",≤ 100
7,"Cc1ccc(OCCN2CCCCC2)cc1-c1ccnc(NC(=O)c2nnc(Cc3cc(F)cc(F)c3)[nH]2)c1 [Example 232, 5-(3,5-difluorobenzyl)-N-(4-(2-methyl-5-(2-(piperidin-1-yl)ethoxy)phenyl)pyridin-2-yl)-4H-1,2,4-triazole-3-carboxamide]",100 to 1000
8,"COCCCOc1ccc(C)c(-c2ccnc(NC(=O)c3nnc(CC4CCCC4)[nH]3)c2)c1 [Example 144, 5-(cyclopentylmethyl)-N-(4-(5-(3-methoxypropoxy)-2-methylphenyl)pyridin-2-yl)-4H-1,2,4-triazole-3-carboxamide]",≤ 100
9,"Cc1ccc(OCCCC(C)(C)O)cc1-c1cc(NC(=O)c2nnc(CC3CCCCC3)[nH]2)ncc1Cl [Example 239, N-(5-chloro-4-(5-((4-hydroxy-4-methylpentyl)oxy)-2-methylphenyl)pyridin-2-yl)-5-(cyclohexylmethyl)-4H-1,2,4-triazole-3-carboxamide]",≤ 100
10,"Cc1ccc(OCCCC(C)(C)O)cc1-c1ccnc(NC(=O)c2nnc(Cc3ccc(F)c(C(F)(F)F)c3)[nH]2)c1 [Example 212, 5-(4-fluoro-3-trifluoromethylbenzyl)-N-(4-(5-((4-hydroxy-4-methylpentyl)oxy)-2-methylphenyl)pyridin-2-yl)-4H-1,2,4-triazole-3-carboxamide]",100 to 1000
11,"CC(C)(O)CCCOc1ccc(Cl)c(-c2ccnc(NC(=O)c3nnc(Cc4cc(Cl)ccc4F)[nH]3)c2)c1 [Example 340, 5-(5-chloro-2-fluorobenzyl)-N-(4-(2-chloro-5-((4-hydroxy-4-methylpentyl)oxy)phenyl)pyridin-2-yl)-4H-1,2,4-triazole-3-carboxamide]",100 to 1000
12,"Cc1ccc(OCCCCC#N)cc1-c1ccnc(NC(=O)c2nnc(Cc3ccccc3)[nH]2)c1 [Example 91, 5-benzyl-N-(4-(5-(4-cyanobutoxy)-2-methylphenyl)pyridin-2-yl)-4H-1,2,4-triazole-3-carboxamide]",≤ 100
13,"CC(C)(O)CCCOc1ccc(C(F)(F)F)c(-c2cc(NC(=O)c3nnc(Cc4ccccc4F)[nH]3)ncn2)c1 [Example 451, 5-(2-fluorobenzyl)-N-(6-(5-((4-hydroxy-4-methylpentyl)oxy)-2-(trifluoromethyl)phenyl)pyrimidin-4-yl)-4H-1,2,4-triazole-3-carboxamide]",≤ 100
14,"CC(C)(O)COc1ccc(Cl)c(-c2ccnc(NC(=O)c3nnc(CC4CCCC4)[nH]3)c2)c1 [Example 365, N-(4-(2-chloro-5-(2-hydroxyl-2-methylpropoxy)phenyl)pyridin-2-yl)-5-(cyclopentylmethyl)-4H-1,2,4-triazole-3-carboxamide]",≤ 100
15,"CC(C)(O)CCCOc1cc(F)c(Cl)c(-c2ccnc(NC(=O)c3nnc(Cc4ccccc4F)[nH]3)c2)c1 [Example 408, N-(4-(2-chloro-3-fluoro-5-((4-hydroxy-4-methylpentyl)oxy)phenyl)pyridin-2-yl)-5-(2-fluorobenzyl)-4H-1,2,4-triazole-3-carboxamide]",> 10000
